Values after ≈ are worked out from the molar mass of the structure shown. Active and inactive are the calls of the source. No cut-off for these calls is given here.
What was measured:
[1] = molecular target: T1, 5-hydroxytryptamine receptor 2B (Homo sapiens, UniProt P41595); experiment: Antagonist activity at human 5HT2B receptor expressed in CHO cells assessed as intracellular cAMP formation by RIA; assay type: functional, cell-based
[2] = molecular target: T1, 5-hydroxytryptamine receptor 2B; experiment: Agonist activity at human 5HT2B receptor expressed in CHO cells assessed as intracellular cAMP formation by RIA; assay type: functional, cell-based
[3] = molecular target: T2, 5-hydroxytryptamine receptor 6 (Homo sapiens, UniProt P50406); experiment: Displacement of [3H]LSD from human 5HT6 receptor by scintillation counting
[4] = molecular target: T1, 5-hydroxytryptamine receptor 2B; experiment: Displacement of [3H]5HT from human 5HT2B receptor expressed in CHO cells by scintillation counting; assay type: cell-based
[5] = molecular target: T2, 5-hydroxytryptamine receptor 6; experiment: Antagonist activity at human cloned 5HT6 receptor expressed in human HeLa cells assessed as intracellular cAMP formation by RIA; assay type: functional, cell-based
[6] = molecular target: 5-hydroxytryptamine receptor 1D (Homo sapiens, UniProt P28221); experiment: Binding affinity to 5HT1D receptor
[7] = molecular target: 5-hydroxytryptamine receptor 1B (Homo sapiens, UniProt P28222); experiment: Binding affinity to 5HT1B receptor
[8] = molecular target: T3, 5-hydroxytryptamine receptor 1A (Homo sapiens, UniProt P08908); experiment: Binding affinity to 5HT1A receptor
T3 sequence (P08908 whole entry): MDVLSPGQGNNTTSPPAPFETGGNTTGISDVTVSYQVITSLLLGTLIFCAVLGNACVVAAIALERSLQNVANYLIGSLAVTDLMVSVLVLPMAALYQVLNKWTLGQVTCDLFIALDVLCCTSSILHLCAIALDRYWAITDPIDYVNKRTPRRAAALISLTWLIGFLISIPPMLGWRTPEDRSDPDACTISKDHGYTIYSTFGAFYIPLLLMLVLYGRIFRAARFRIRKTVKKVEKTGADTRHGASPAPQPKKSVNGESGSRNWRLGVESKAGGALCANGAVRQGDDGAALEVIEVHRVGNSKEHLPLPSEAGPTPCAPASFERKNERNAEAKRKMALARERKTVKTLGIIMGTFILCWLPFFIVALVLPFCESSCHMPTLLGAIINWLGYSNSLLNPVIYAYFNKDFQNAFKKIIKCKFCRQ

[9] = molecular target: T4, Alpha-2A adrenergic receptor (Homo sapiens, UniProt P08913); experiment: Binding affinity to alpha2A adrenergic receptor
T4 sequence (P08913 whole entry): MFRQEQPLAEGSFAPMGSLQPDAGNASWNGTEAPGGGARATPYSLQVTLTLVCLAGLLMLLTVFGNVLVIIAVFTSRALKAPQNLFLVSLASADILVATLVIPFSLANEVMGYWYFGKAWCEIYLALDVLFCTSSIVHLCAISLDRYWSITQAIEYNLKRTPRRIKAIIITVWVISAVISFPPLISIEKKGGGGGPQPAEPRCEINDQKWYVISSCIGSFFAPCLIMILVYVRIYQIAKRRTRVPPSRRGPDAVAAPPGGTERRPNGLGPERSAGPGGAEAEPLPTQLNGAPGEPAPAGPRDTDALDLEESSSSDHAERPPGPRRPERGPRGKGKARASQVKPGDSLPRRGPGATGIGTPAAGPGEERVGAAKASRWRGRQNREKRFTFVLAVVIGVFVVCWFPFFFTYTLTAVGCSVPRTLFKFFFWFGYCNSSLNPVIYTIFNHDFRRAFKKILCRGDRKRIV

D(2) dopamine receptor = D(2) dopamine receptor (Homo sapiens, UniProt P14416); experiment: Binding affinity to dopamine D2 receptor
hERG (KCNH2) = hERG (KCNH2) (Homo sapiens, UniProt Q12809); experiment: Inhibition of human ERG at 10 uM
[10] = Solubility at pH 7.4; assay type: physicochemical; conditions: buffer
[11] = Half life in rat microsomes; assay type: ADME, Microsome
[12] = Permeability at pH 7.4 by PAMPA; assay type: ADME; conditions: read-out: permeability
CYP3A4 = CYP3A4 (Homo sapiens, UniProt P08684); experiment: Inhibition of CYP3A4 at 3 uM; assay type: ADME
CYP2D6 = CYP2D6 (Homo sapiens, UniProt P10635); experiment: Inhibition of CYP2D6 at 3 uM; assay type: ADME
CYP2C9 = CYP2C9 (Homo sapiens, UniProt P11712); experiment: Inhibition of CYP2C9 at 3 uM; assay type: ADME
Rattus norvegicus [13] = experiment: Permeability across blood brain barrier in Long-Evans rat at 10 mg/kg, ip administered as single dose; assay type: ADME, organism-based; design: dose 10 mg/kg, route intraperitoneal; conditions: in vivo
Rattus norvegicus [14] = experiment: Cognitive enhancing effect in Long-Evans rat assessed as improvement of recognition memory at 3 mg/kg, ip administered 1 hr prior to learning trial measured after 48 hrs during testing trial by novel object recognition test; assay type: functional, organism-based; design: dose 3 mg/kg

T1 sequence (P41595 whole entry): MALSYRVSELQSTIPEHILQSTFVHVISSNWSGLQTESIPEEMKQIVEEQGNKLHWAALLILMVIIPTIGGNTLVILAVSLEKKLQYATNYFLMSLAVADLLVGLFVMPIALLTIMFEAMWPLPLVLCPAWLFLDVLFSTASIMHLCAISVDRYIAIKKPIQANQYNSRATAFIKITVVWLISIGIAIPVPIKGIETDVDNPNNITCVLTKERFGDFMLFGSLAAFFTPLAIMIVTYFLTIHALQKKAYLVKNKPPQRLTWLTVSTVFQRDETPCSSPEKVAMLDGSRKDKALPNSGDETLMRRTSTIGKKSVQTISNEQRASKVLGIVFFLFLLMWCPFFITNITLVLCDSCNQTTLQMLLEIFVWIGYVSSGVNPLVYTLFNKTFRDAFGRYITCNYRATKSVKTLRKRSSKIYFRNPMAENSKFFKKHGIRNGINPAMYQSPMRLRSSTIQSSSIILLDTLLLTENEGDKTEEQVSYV
T2 sequence (P50406 whole entry): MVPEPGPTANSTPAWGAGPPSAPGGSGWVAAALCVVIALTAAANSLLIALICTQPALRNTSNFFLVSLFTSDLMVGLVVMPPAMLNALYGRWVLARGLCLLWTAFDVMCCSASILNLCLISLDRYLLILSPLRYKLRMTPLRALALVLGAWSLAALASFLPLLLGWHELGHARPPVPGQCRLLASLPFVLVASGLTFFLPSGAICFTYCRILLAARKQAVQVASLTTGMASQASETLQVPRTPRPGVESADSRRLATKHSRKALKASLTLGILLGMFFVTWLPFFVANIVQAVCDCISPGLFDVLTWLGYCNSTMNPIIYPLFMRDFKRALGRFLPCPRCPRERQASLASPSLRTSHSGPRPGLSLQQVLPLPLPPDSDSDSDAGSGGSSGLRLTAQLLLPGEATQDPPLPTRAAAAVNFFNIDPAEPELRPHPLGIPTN
Chain of D(2) dopamine receptor (P14416 whole entry): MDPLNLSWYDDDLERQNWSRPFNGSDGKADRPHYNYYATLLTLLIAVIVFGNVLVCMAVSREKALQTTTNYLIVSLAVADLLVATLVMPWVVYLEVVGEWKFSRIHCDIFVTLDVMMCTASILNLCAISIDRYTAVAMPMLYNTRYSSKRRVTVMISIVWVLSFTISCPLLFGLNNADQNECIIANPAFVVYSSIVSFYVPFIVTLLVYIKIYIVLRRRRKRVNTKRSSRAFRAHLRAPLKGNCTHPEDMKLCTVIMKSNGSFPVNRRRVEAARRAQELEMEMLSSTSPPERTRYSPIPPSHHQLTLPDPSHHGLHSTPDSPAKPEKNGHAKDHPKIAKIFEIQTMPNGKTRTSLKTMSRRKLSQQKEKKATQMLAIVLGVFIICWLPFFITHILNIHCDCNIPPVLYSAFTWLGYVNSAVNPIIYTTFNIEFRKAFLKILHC
Chain of hERG (KCNH2) (Q12809 whole entry): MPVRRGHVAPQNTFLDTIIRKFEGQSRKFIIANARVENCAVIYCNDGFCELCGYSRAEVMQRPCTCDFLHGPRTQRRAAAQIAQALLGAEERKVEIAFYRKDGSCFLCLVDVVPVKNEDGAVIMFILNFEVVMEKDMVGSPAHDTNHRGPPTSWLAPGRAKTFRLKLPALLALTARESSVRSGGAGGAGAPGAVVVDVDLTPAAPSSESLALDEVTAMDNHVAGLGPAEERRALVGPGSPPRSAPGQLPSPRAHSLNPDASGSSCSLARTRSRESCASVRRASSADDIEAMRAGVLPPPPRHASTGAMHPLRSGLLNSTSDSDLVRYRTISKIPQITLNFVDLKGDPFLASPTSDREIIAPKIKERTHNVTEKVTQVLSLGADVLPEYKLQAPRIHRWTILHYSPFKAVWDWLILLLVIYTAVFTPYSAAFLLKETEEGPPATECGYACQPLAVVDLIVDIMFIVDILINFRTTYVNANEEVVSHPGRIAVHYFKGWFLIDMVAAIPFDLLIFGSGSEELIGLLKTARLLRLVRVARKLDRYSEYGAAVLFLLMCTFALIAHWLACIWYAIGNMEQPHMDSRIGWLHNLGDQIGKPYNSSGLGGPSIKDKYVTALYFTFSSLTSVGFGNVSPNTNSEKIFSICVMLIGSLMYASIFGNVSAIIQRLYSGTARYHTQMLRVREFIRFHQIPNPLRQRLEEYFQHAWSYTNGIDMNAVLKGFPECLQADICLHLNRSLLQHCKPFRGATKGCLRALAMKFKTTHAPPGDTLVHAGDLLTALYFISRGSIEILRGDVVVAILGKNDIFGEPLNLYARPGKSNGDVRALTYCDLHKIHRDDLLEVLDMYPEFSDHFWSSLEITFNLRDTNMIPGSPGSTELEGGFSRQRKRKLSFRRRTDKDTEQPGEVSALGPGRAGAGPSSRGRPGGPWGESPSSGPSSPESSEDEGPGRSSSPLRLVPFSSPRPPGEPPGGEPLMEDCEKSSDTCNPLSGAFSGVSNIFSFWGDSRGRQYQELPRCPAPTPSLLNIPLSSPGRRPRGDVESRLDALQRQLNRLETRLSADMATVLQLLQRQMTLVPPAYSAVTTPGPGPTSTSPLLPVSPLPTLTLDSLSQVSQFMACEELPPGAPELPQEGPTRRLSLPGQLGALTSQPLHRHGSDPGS
Chain of 5-hydroxytryptamine receptor 1B (P28222 whole entry): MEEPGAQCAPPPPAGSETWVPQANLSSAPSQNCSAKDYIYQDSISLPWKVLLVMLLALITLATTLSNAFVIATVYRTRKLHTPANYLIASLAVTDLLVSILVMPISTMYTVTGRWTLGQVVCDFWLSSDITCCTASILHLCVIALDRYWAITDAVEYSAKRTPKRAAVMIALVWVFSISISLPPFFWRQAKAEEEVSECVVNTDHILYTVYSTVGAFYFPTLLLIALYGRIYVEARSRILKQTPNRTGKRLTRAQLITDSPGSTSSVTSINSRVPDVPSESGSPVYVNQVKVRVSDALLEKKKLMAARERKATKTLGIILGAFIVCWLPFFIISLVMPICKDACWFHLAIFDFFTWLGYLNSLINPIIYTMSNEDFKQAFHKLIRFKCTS
Chain of CYP2C9 (P11712 whole entry): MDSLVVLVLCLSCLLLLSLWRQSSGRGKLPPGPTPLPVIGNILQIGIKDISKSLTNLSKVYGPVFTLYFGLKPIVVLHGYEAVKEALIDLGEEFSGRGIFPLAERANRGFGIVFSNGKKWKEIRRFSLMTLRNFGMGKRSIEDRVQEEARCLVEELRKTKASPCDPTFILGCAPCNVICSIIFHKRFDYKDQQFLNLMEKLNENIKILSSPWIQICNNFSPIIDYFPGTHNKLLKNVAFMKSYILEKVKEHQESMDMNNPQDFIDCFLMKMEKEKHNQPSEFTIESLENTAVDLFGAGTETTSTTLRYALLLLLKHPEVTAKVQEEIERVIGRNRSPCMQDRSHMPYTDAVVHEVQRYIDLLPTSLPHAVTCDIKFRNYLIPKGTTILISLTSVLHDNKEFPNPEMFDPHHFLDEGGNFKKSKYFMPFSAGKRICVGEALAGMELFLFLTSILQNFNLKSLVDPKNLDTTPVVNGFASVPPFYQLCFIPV
Chain of CYP3A4 (P08684 whole entry): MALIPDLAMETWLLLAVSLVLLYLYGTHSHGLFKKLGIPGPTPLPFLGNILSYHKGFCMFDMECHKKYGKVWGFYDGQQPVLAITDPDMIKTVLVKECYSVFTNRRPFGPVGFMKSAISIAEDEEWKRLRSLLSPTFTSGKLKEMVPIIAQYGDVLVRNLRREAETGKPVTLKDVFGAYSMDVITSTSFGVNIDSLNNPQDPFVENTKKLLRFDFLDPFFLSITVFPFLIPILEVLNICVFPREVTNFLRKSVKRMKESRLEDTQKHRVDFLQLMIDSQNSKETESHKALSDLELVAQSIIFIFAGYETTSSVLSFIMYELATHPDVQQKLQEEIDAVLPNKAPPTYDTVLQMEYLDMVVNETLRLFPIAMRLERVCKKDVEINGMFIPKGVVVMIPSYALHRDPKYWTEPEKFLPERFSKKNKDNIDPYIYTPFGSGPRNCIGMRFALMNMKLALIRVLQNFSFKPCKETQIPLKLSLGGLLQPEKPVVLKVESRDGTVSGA
Chain of 5-hydroxytryptamine receptor 1D (P28221 whole entry): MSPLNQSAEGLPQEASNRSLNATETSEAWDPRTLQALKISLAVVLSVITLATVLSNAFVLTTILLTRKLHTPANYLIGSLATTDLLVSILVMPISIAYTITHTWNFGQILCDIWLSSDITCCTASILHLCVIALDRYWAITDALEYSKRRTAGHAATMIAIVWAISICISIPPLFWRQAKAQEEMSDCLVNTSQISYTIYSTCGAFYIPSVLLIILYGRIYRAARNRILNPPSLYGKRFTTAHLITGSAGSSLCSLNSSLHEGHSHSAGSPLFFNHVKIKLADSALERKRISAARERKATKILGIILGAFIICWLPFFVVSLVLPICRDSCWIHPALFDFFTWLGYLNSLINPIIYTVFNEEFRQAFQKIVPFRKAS
Chain of CYP2D6 (P10635 whole entry): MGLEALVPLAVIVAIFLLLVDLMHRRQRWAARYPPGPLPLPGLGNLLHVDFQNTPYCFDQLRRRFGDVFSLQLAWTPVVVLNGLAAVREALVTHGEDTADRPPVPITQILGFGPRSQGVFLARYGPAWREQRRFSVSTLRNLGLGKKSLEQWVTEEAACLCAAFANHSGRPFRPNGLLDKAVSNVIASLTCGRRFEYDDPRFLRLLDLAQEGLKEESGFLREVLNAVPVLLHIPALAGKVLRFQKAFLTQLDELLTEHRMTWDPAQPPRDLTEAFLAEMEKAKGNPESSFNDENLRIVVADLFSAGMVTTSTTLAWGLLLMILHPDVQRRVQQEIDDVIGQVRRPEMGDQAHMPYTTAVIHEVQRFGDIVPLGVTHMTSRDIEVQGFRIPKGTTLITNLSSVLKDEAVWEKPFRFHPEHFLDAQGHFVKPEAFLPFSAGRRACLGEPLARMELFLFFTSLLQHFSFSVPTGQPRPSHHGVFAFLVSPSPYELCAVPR

Activity [1]	Activity [2]	Ki [3] [µM]	Ki [4] [µM]	IC50 [5] [µM]	SMILES	further results
Active	inactive	–	0.442	0.0337	NC1CCN(c2ccc3[nH]nc(S(=O)(=O)c4cccc(Cl)c4)c3c2)CC1	–
Active	inactive	–	0.021	–	N[C@H]1CCN(c2ccc3[nH]nc(S(=O)(=O)c4cccc5ccccc45)c3c2)C1	–
Active	inactive	0.0182	1.36	0.0889	NC1CCN(c2ccc3[nH]nc(S(=O)(=O)c4ccc5ccccc5c4)c3c2)CC1	–
Active	inactive	0.0758	0.26	0.433	CC(C)Cn1nc2ccc(N3CC[C@@H](N)C3)cc2c1S(=O)(=O)c1cccc2ccccc12	–
Active	inactive	0.00355	0.0979	0.0165	NC1CN(c2ccc3[nH]nc(S(=O)(=O)c4cccc5ccccc45)c3c2)C1	–
Active	inactive	–	> 3.3	0.203	CC(C)Cn1nc(S(=O)(=O)c2cccc3ccccc23)c2cc(N3CC[C@@H](N)C3)ccc21	–
Active	inactive	0.00051	0.423	0.0396	CN(C)[C@@H]1CCN(c2ccc3[nH]nc(S(=O)(=O)c4cccc5ccccc45)c3c2)C1	–
Active	inactive	0.0487	> 3.3	0.38	CC(C)n1nc2ccc(N3CC[C@@H](N)C3)cc2c1S(=O)(=O)c1cccc2ccccc12	–
Active	inactive	–	0.185	0.316	Cn1nc(S(=O)(=O)c2cccc3ccccc23)c2cc(N3CC[C@@H](N)C3)ccc21	–
Active	inactive	–	0.1	–	NC1CCN(c2ccc3[nH]nc(S(=O)(=O)c4cccc5ccccc45)c3c2)CC1	–
Active	inactive	0.0244	0.583	0.0175	CN(C)[C@H]1CCN(c2ccc3[nH]nc(S(=O)(=O)c4cccc5ccccc45)c3c2)C1	–
Active	inactive	0.0543	0.455	0.444	Cn1nc2ccc(N3CC[C@@H](N)C3)cc2c1S(=O)(=O)c1cccc2ccccc12	–
Active	inactive	–	0.274	–	N[C@@H]1CCN(c2ccc3[nH]nc(S(=O)(=O)c4cccc5ccccc45)c3c2)C1	Ki [6]: 2.27 µM; Ki [7]: 6.04 µM; Ki [8]: 4.73 µM; Ki [9]: > 10 µM; Ki (D(2) dopamine receptor): 2.91 µM; inhibition at 10 µM (hERG (KCNH2)): 14%; solubility [10]: 63 µg/mL (≈ 161 µM); half-life [11]: 20 min; Papp [12]: 0.19 ×10⁻⁶ cm/s; inhibition at 3 µM (CYP3A4): 88%; inhibition at 3 µM (CYP2D6): 7%; inhibition at 3 µM (CYP2C9): 73%; pBBB (Rattus norvegicus [13]): 11 ×10⁻⁶ cm/s
Active	inactive	–	0.191	0.157	CC(C)n1nc(S(=O)(=O)c2cccc3ccccc23)c2cc(N3CC[C@@H](N)C3)ccc21	Activity (Rattus norvegicus [14]): Active
Active	inactive	0.00452	0.078	0.0701	NC1CCN(c2ccc3[nH]nc(S(=O)(=O)c4cccc5c(Cl)cccc45)c3c2)CC1	–
Active	inactive	0.0131	> 10	0.0517	CC(C)c1ccc(S(=O)(=O)c2n[nH]c3ccc(N4CCC(N)CC4)cc23)cc1	–

SMILES	Activity [1]	Activity [2]	Ki [3] [µM]	Ki [4] [µM]	IC50 [5] [µM]	further results
Cc1ccc(S(=O)(=O)c2n[nH]c3ccc(N4CCC(N)CC4)cc23)c2ccccc12	Active	inactive	0.00362	0.493	0.0267	–

— ChEMBL document CHEMBL1157614, “5-Cyclic amine-3-arylsulfonylindazoles as novel 5-HT6 receptor antagonists” (J Med Chem, 2010)
